# Values joined by “and” are separate entries in the source; they are usually repeats but may differ in a detail not shown here. Equal entries are not always repeated.
# Experiments:
# Type in all cases: in vivo
# [1] = Barium (BaSO4) passing into the manure of chickens; conditions: for Amount of Barium, % found in manure: 0.093% in feed
# Source text: This example illustrates a determination of the maximum concentration of any active agent that will pass into the manure of chickens.
# Briefly, chicken feed was formulated using a pulverized cattle bolus which contained barium in the form of BaSO4.
# [2] = Methoprene found in manure of cows fed treated feed as top dressing; conditions: Average of Day 1-Day 10
# Protocol: This example illustrates a study in cattle comparing an inventive formulation containing a lignin-methoprene complex with a formulation containing free methoprene.
# Four cows were fed the formulations for eleven days and their manure was tested every 24 hours.
# [3] = Enteric Matrix/Coating of Methoprene Feed Through Study in chickens; conditions: Feed Rate 23.8 ppm
# Source text: This example illustrates a study of methoprene versus enteric coated methoprene. The results below indicate that there is no difference in % recovery between technical grade methoprene and enteric coated methoprene or matrix treated methoprene.
# [4] = Methoprene found in manure of cats fed treated cat food; conditions: for Calculated Methoprene (ppm) in manure: cats Q, S, T
# Protocol: This example illustrates a study in cats comparing an inventive formulation containing lignin-methoprene complexes with a formulation containing free methoprene.
# Three cats were fed the formulations for a week and their manure was tested every 24 hours.
# [5] = Methoprene found in manure of horses fed treated feed as top dressing; conditions: Average of Day 0-Day 10
# Protocol: This example illustrates a study in horses comparing an inventive formulation containing a lignin-methoprene complex with a formulation containing free methoprene.
# Four horses were fed the formulations for eleven days and their manure was tested every 24 hours.
# [6] = horse Bettor Lad, AI fed 8.94 ppm
structure (smiles),measurement,setting,value
"O=S(=O)([O-])[O-].[Ba+2] [Barium, BaSO4]",% of initial BaSO4 found in manure,[1]; 4 hr.,1.78%
same,"Amount of Barium, % found in manure",[1]; 4 hr. after feeding,0.00165%
same,% of initial BaSO4 found in manure,[1]; 24 hr.,48.90%
same,"Amount of Barium, % found in manure",[1]; 24 hr. after feeding,0.0455%
same,% of initial BaSO4 found in manure,[1]; 48 hr.,59.90%
same,"Amount of Barium, % found in manure",[1]; 48 hr. after feeding,0.0557%
same,% of initial BaSO4 found in manure,[1]; 72 hr.,50.60%
same,"Amount of Barium, % found in manure",[1]; 72 hr. after feeding,0.0471%
"COC(C)(C)CCCC(C)C/C=C/C(C)=C/C(=O)OC(C)C (stereo not drawn) [free methoprene, methoprene]",AI manure ppm,"[2]; cow 10 R/W, AI fed 8.94 ppm",0.16 ppm
same,Percent pass through,"[2]; cow 10 R/W, AI fed 8.94 ppm",1.8%
same,AI manure ppm,"[2]; cow 16 Black, AI fed 12.58 ppm",0.35 ppm
same,Percent pass through,"[2]; cow 16 Black, AI fed 12.58 ppm",2.8%
same,Avg. % pass through by Group,"[2]; cows, two per group",2.3%
same,% Recovery,[3],12.22%
same,Manure Rate ppm (methoprene),[3]; feed Egg Buster,2.91 ppm
same,Day 1 Avg. methoprene in manure,"[4]; cat food @ 36.2 ppm, 24 hr",0.63 ppm
same,Day 1 Avg. methoprene recovered in manure (%),"[4]; cat food @ 36.2 ppm, 24 hr",(1.7%)
same,Day 2 Avg. methoprene in manure,"[4]; cat food @ 36.2 ppm, 48 hr",2.2 ppm
same,Day 2 Avg. methoprene recovered in manure (%),"[4]; cat food @ 36.2 ppm, 48 hr",(6.1%)
same,Day 3 Avg. methoprene in manure,"[4]; cat food @ 36.2 ppm, 72 hr",1.8 ppm
same,Day 3 Avg. methoprene recovered in manure (%),"[4]; cat food @ 36.2 ppm, 72 hr",(5.0%)
same,Day 4 Avg. methoprene in manure,"[4]; cat food @ 36.2 ppm, 96 hr",1.9 ppm
same,Day 4 Avg. methoprene recovered in manure (%),"[4]; cat food @ 36.2 ppm, 96 hr",(5.2%)
same,Calculated Methoprene (ppm) in manure,"[4]; cat food @ 36.2 ppm, Day 0 (0 hr)",0 ppm
same,Calculated Methoprene (ppm) in manure,"[4]; cat food @ 36.2 ppm, Day 1 (24 hr), listed as Free Methoprene Lot # 491-166",0.6 ppm and 0.7 ppm
same,Calculated Methoprene (ppm) in manure,"[4]; cat food @ 36.2 ppm, Day 2 (48 hr), listed as Free Methoprene Lot # 491-166",2.4 ppm and 2.5 ppm and 1.6 ppm
same,Calculated Methoprene (ppm) in manure,"[4]; cat food @ 36.2 ppm, Day 3 (72 hr), listed as Free Methoprene Lot # 491-166",2.0 ppm and 1.5 ppm
same,amount of methoprene recovered from the manure of cats,[4]; range of daily averages Day 1-Day 4,1.7-6.1%
same,AI manure ppm,[5]; [6],1.29 ppm
same,Percent pass through,[5]; [6],14.4%
same,AI manure ppm,"[5]; horse Dancer, AI fed 8.61 ppm",1.30 ppm
same,Percent pass through,"[5]; horse Dancer, AI fed 8.61 ppm",15.1%
same,Avg. % pass through by Group,"[5]; horses, two per group",14.75%
